Reference: patent US9657088B2, “Anti-HSV antibody” (priority 2009, dated 2017)
“Also recorded” adds a separate entry of the source. Where two headings read alike, the source gives them in different places.

What was measured:
HSV1 strain 342 hv [1] = assay: Intravaginal HSV1 infection of C57BL/6J mice, i.p. antibody; type: in vivo; details: i.p. post infection
Text: Therefore, C57BL/6J mice were infected by application of the HSV1 strain 342 hv on the intact vaginal mucosa membrane.

HSV-1 = assay: Plaque-reduction assay with or without human complement; type: cell-based; details: 2 μg/ml, with or without 10% human complement
HSV1 strain 342 hv [2] = details: administration 24 h prior to viral inoculation; cited from earlier work
gB derived peptides = type: binding, HSV-1
[3] = tested on: HSV-1 wild-type strains and gB mutant viruses; assay: Mouse protection experiments with gB mutant viruses; type: in vivo, C57BL/6 mice; details: i.p. 24 hours before
HSV-1 F [4] = assay: Post-exposure treatment of NOD/SCID mice with established HSV-1 infection; type: in vivo
Description: Infected animals per group n=7.
Vaginal virus titers of antibody or control treated mice were determined from vaginal irrigations cultured on Vero cell monolayers. Error bars indicate standard deviation.
Anesthetized female nonobese diabetic/severe combined immunodeficient (NOD-SCID) mice (NOD.CB17-Prkdc^scid/J, Charles River Laboratories, Research Models and Services, Sulzfeld, Germany), 6-8 weeks of age, were challenged intravaginally with 20 μl inoculum of 1×10^6 TCID50 HSV-1 F per mouse. Skin glue (Epiglu, Meyer-Haake Medical Innovations, Wehrheim, Germany) was applied onto the vulva to prevent discharge of the virus inoculum. […] Mice were examined daily after viral inoculation for loss of weight, vulvitis/vaginitis (redness, mucopurulent discharge and signs of inflammation) and neurological disease. Mice displaying any of theses symptoms were sacrificed immediately. […] Mice were assessed for infection by determination of virus titers from vaginal irrigations obtained on days 1, 2, 4, 6 and 8 after infection and at the time of death using the endpoint dilution assay on Vero cells. Viral loads in organs (spleen, adrenal gland, lung heart, liver, kidney, spinal cord, and brain) of sacrificed mice were determined after homogenization of organs by titration on Vero cell monolayers as described elsewhere (41). Each test and control group contained 9-10 animals with detectable HSV-1 infection.

HSV-1 F [5] = assay: Pre- versus post-attachment neutralization assay; type: cell-based; details: 100 TCID50 HSV-1, 4° C., Vero cells
Description: The highest antibody and polyvalent human IgG titer, respectively, preventing virus induced cytopathic effect (CPE) in ten individual inoculated cell monolayers to 100% and 50% relative to controls were determined after 72 h incubation at 37° C. and being considered as the endpoint. Standard errors of the mean of three independent experiments were <0.1.
Neutralization titers were determined after 72 h as described in the standard neutralization assay above.

[6] = tested on: truncated HSV-1 glycoprotein B (gB) expressed in COS-1 cells; type: binding
HSV-1 F [7] = assay: Cell-to-cell spread assay in Vero cell monolayers; type: cell-based; details: 500 nM, 48 h
Description: Vero cells grown to confluency on glass cover slips in 24-weel tissue culture plates are infected for 4 h at 37° C. with a constant virus amount of 400 TCID50/well. One median tissue culture infective dose (1 TCID50) is the amount of a cytopathogenic agent, such as a virus, that will produce a cytopathic effect in 50% of the cell cultures inoculated. The virus inoculum is subsequently removed, the cells washed twice with PBS and further incubated for 2 days at 37° C. in 1 ml DMEM, 2% FCS, Pen/Strep containing an excess of either different anti-HSV antibodies or polyclonal anti-HSV control serum in order to prevent viral spreading via the supernatant Viral antigens of HSV-infected cells are detected with a fluorescence labelled polyclonal goat-anti-HSV-serum (BETHYL Labolatories, Montgomery, Tex. USA, Catalog No. A190-136F, Lot No. A190-136F-2).
Two days after infection spreading of the virus was detected with fluorescence labeled polyclonal goat-anti-HSV serum using a Leica DM IRE2 confocal microscope at 40-fold magnification.
For spreading within a host HSV uses two mechanisms: release of cell-free particles and direct, cell-to-cell spread. […] Viral antigens were detected by staining of HSV-1 infected cell monolayers with FITC-conjugated polyclonal goat-anti-HSV serum (BETHYL, Montgomery, Tex., USA) diluted 1:100 in blocking buffer. […]

mAb 2c: murine monoclonal IgG2a antibody specific for glycoprotein B of HSV1 and HSV2; VH SEQ ID NO: 9, VL SEQ ID NO: 10
inhibition of viral replication and prevention of lethal disease (HSV1 strain 342 hv [1]; CD4+ and CD8+ depleted animals): capable to inhibit viral replication as well as to prevent a generalized, lethal progressing disease with a high efficiency
inhibition of viral propagation in vaginal mucosa and inflammatory lesions (HSV1 strain 342 hv [1]; immunocompetent and CD4+ T cell depleted animals): capable of inhibiting the viral propagation in the vaginal mucosa membrane and the formation of inflammatory lesions
complement dependence of HSV neutralization (HSV-1): neutralize HSV complement-independent
protection against infection (HSV1 strain 342 hv [2]): efficiently protected the animals against infection
binding strength to duotope (gB derived peptides; duotope FED-βA-βA-FYGYRE): almost saturation of the fluorescence signal intensity
binding strength to duotope (gB derived peptides; duotope YSQFMG-βA-FYGYRE versus peptide 172[…]184): only slightly increased
protective effect in vivo ([3]; mice inoculated with mutants R126 (Y303N), R1375 (R304Q), B4.1 (E305K)): ineffective
protective effect in vivo ([3]; mice inoculated with mutants R1435 (H308Y) or R233 (R328H) or wild-type viruses): effective
protection from lethal outcome of established infection (HSV-1 F [4]; 15 mg/kg i.v. at 24 h, 40 h and 56 h post infection): completely protected from the lethal outcome of infection; also recorded: completely prevented lethal outcome of infection
virions in sensory neurons and respective organs (HSV-1 F [4]; one month after infection): no virions were detected
pre-attachment versus post-attachment neutralization (HSV-1 F [5]): Equal neutralization efficacy
Reactivity ([6]; gB(1-470)): −
Reactivity ([6]; gB(1-487)): +
Reactivity ([6]; gB(1-503)): +
Reactivity ([6]; gB(1-505)): +
Reactivity ([6]; gB(1-630)): +
Reactivity ([6]; gB(1-720)): +
Reactivity ([6]; gB(1-904) (full length gB)): +
Reactivity ([6]; pSVL, expression vector, negative control): −
inhibition of cell-to-cell spread (HSV-1 F [7]): inhibit at a concentration of 500 nM the cell-to-cell spread completely; also recorded: completely abrogated HSV-1 spread
